System: MDA-MB-231 human breast cancer cells
Assay: Material cytotoxicity by MTT assay
Conditions: under the condition of the present disclosure, including products after UV irradiation
Procedure: Then the drug delivery systems of Example 1 with different concentrations are tested for their cytotoxicity. […] The MDA-MB-231 human breast cancer cells are treated with 0.1, 1, 2, 5, 10 and 20 μg/mL of the drug delivery system of Example 1 for 6 hours, respectively, and then further incubated for another 24 hours. The cell viability is measured by the MTT assay.

Question: With `OCc1ccc2ccc3cccc4ccc1c2c34` [pyrenemethanol] as the compound, how does the “harm to the cells” value read?
Answer: Its value is “not harmful”.

Source: patent US20200197320A1, “DRUG CARRIER AND DRUG DELIVERY SYSTEM THEREOF” (NATIONAL TSING HUA UNIVERSITY, priority 2018, published 2020)
